The values that follow are results of earlier work, collected in patent US11526092B2, “Electrophotographic photoreceptor, process cartridge, and image forming apparatus” (FUJIFILM Business Innovation Corp., priority 2019, dated 2022).

For the series the following is noted: in water at 25° C.; first acid dissociation constant (pKa1).

In the case of `CCCCCCCCCCCCc1ccc(S(=O)(=O)O)cc1` [DBS, dodecylbenzenesulfonic acid], the “Acidic compound pKa” value is listed as −2.
